Laboratory results published in patent US6946458B2, “N-thiolated beta-lactams: novel antibacterial agents for methicillin-resistant Staphylococcus aureus” (University of South Florida, priority 1999, dated 2005).

Tests used:
Assay in all cases: Kirby-Bauer agar disk diffusion
MRSA USF658 = format: cell-based, Staphylococcus aureus; parameters: Kirby-Bauer Disc Diffusion Test Results: unit not given here; details: for Zones of Inhibition: Table 4, 20 μg disk loading; for Kirby-Bauer Disc Diffusion Test Results: Table 5, beta-lactamase producing strain; for zone of growth inhibition, average diameter: Table 3, 6-mm disks, 20 μg test compound, 24 hours
Protocol: (§1) In this study, a selection of N-methylthio-substituted β-lactams are examined for antimicrobial activity by the Kirby-Bauer disk diffusion method on agar plates. A variety of common Gram-positive and Gram-negative bacteria are tested, including clinical isolates of methicillin-resistant Staphylococcus aureus (MRSA).
(§2) Compound susceptibility measurements are obtained from agar disk diffusion experiments using 6-mm air-dried disks impregnated with 20 μg of the test compound. The values correspond to the average diameters in mm (triplicate experiments) for the zone of growth inhibition observed after 24 h. Staphylococcus aureus (ATCC 25923) and β-lactamase-producing strains of methicillin-resistant Staphylococcus aureus (labeled as MRSA USF652-659) are obtained from Lakeland Regional Medical Center, Lakeland, Fla. Staphylococcus epidermidis, Staphylococcus simulans, Staphylococcus simulans, and Microcossus luteus are clinical isolates from University of South Florida Medical Clinic. Nieserria gonnorhoeae (β-lactamase positive) is obtained from the Tampa Branch State Laboratory. PenG is penicillin G (potassium salt). Table 1 provides the zones of growth inhibition that are observed after 24 hours using the lactams of FIGS. 1A-1I (designated A-I, respectively).
(§3) Of particular interest is the ability of these compounds to retain their effectiveness against penicillin-resistant strains of Staphylococcus aureus, a dangerous hospital-borne pathogen which is becoming difficult to treat with conventional antibiotic therapy. The lactams were screened for antibacterial activity by disk diffusion on agar plates, and the resulting zones of bacterial growth inhibition measured (see Table 3; each lactam is designated by Figure number).
(§4) Table 3: Growth inhibition zones obtained from agar disk diffusion experiments using 6-mm air-dried disks impregnated with 20 μg of the test compound. The values correspond to the average diameters in mm for the zone of growth inhibition observed after 24 hours. Staphylococcus aureus and β-lactamase-producing strains of methicillin-resistant Staphylococcus aureus (labeled MRSA USF652-659) are obtained from a clinical testing laboratory at Lakeland Regional Medical Center, Lakeland, Fla.
(§5) Those compounds were tested for bioactivity using the Kirby-Bauer test on agar plates.
(§6) Biological activity is enhanced against β-lactamase producing strains of methicillin-resistant Staphylococcus aureus (MRSA). With the lactam shown in FIG. 11A serving as a lead structure, a series of other C-4 substituted derivatives (FIGS. 11B-11I) were investigated herein. Table 5 lists microbiological data for β-lactams from Kirby-Bauer Disc Diffusion Test Results (with each lactam identified by Figure number).
(§7) Scheme I summarizes the synthesis of ester compounds 4. 4-Carboxy benzaldehyde (1) is coupled with the appropriate alcohol using DCC/DMAP, followed by reaction with p-anisidine, to give imines 2. Staudinger coupling of methoxyacetyl chloride with imine 2 gives N-aryl protected β-lactam 3. N-Dearylation of β-lactam 3 with ceric ammonium nitrate and methylthiolation with N-(methylthio)phthalimide affords N-methylthio β-lactams 4. These compounds are tested for antibacterial activity by the Kirby-Bauer method of disc diffusion on agar plates. [drawing 7]

MRSA USF654 = format: cell-based, Staphylococcus aureus; parameters: Kirby-Bauer Disc Diffusion Test Results: unit not given here; details: for Zones of Inhibition: Table 4, 20 μg disk loading; for Kirby-Bauer Disc Diffusion Test Results: Table 5, beta-lactamase producing strain; for zone of growth inhibition, average diameter: Table 3, 6-mm disks, 20 μg test compound, 24 hours
Protocol: as §1, §2, §3, §4, §5, §6, §7

MRSA USF655 = format: cell-based, Staphylococcus aureus; parameters: Kirby-Bauer Disc Diffusion Test Results: unit not given here; details: for Zones of Inhibition: Table 4, 20 μg disk loading; for Kirby-Bauer Disc Diffusion Test Results: Table 5; for zone of growth inhibition, average diameter: Table 3, 6-mm disks, 20 μg test compound, 24 hours
Protocol: as §1, §2, §3, §4, §5, §6, §7

MRSA USF653 = format: cell-based, Staphylococcus aureus; parameters: Kirby-Bauer Disc Diffusion Test Results: unit not given here; details: for Zones of Inhibition: Table 4, 20 μg disk loading; for Kirby-Bauer Disc Diffusion Test Results: Table 5, beta-lactamase producing strain; for zone of growth inhibition, average diameter: Table 3, 6-mm disks, 20 μg test compound, 24 hours
Protocol: as §1, §2, §3, §4, §5, §6, §7

MRSA USF657 = format: cell-based, Staphylococcus aureus; parameters: Kirby-Bauer Disc Diffusion Test Results: unit not given here; details: for Zones of Inhibition: Table 4, 20 μg disk loading; for Kirby-Bauer Disc Diffusion Test Results: Table 5, beta-lactamase producing strain; for zone of growth inhibition, average diameter: Table 3, 6-mm disks, 20 μg test compound, 24 hours
Protocol: as §1, §2, §3, §4, §5, §6, §7

MRSA USF659 = format: cell-based, Staphylococcus aureus; parameters: Kirby-Bauer Disc Diffusion Test Results: unit not given here; details: for Zones of Inhibition: Table 4, 20 μg disk loading; for Kirby-Bauer Disc Diffusion Test Results: Table 5, beta-lactamase producing strain; for zone of growth inhibition, average diameter: Table 3, 6-mm disks, 20 μg test compound, 24 hours
Protocol: as §1, §2, §3, §4, §5, §6, §7

MRSA USF652 = format: cell-based, Staphylococcus aureus; parameters: Kirby-Bauer Disc Diffusion Test Results: unit not given here; details: for Zones of Inhibition: Table 4, 20 μg disk loading; for Kirby-Bauer Disc Diffusion Test Results: Table 5, beta-lactamase producing strain; for zone of growth inhibition, average diameter: Table 3, 6-mm disks, 20 μg test compound, 24 hours
Protocol: as §1, §2, §3, §4, §5, §6, §7

MRSA USF656 = format: cell-based, Staphylococcus aureus; parameters: Kirby-Bauer Disc Diffusion Test Results: unit not given here; details: for Zones of Inhibition: Table 4, 20 μg disk loading; for Kirby-Bauer Disc Diffusion Test Results: Table 5, beta-lactamase producing strain; for zone of growth inhibition, average diameter: Table 3, 6-mm disks, 20 μg test compound, 24 hours
Protocol: as §1, §2, §3, §4, §5, §6, §7

Staph aureus 525 = format: cell-based, Staphylococcus aureus; details: for Zones of Inhibition: Table 4, 20 μg disk loading; for Kirby-Bauer Disc Diffusion Test Results: Table 5
[1] = tested on: Staphylococcus epidermidis; format: cell-based; details: Table 3, 6-mm disks, 20 μg test compound, 24 hours
Protocol: as §1, §2, §3, §4

[2] = tested on: Staphylococcus aureus (ATCC 25923); format: cell-based; details: Table 3, 6-mm disks, 20 μg test compound, 24 hours
Protocol: as §1, §2, §3, §4

Micrococcus luteus = format: cell-based; details: Table 3, 6-mm disks, 20 μg test compound, 24 hours
Protocol: as §1, §2, §3, §4

S. simulans (ATCC 11631) = format: cell-based, Staphylococcus simulans; details: Table 3, 6-mm disks, 20 μg test compound, 24 hours
Protocol: as §1, §2, §3, §4

[3] = tested on: S. saprophyticus (ATCC 3552); format: cell-based, Staphylococcus saprophyticus; details: Table 3, 6-mm disks, 20 μg test compound, 24 hours
Protocol: as §1, §2, §3, §4

Structure (SMILES)	Zones of Inhibition (MRSA USF658)	Zones of Inhibition (MRSA USF654)	Zones of Inhibition (MRSA USF655)	Zones of Inhibition (MRSA USF653)	Zones of Inhibition (MRSA USF657)	Zones of Inhibition (MRSA USF659)	Zones of Inhibition (MRSA USF652)	Zones of Inhibition (MRSA USF656)	Zones of Inhibition (Staph aureus 525)	Kirby-Bauer Disc Diffusion Test Results (MRSA USF658)	Kirby-Bauer Disc Diffusion Test Results (MRSA USF654)	Kirby-Bauer Disc Diffusion Test Results (MRSA USF655)	Kirby-Bauer Disc Diffusion Test Results (MRSA USF653)	Kirby-Bauer Disc Diffusion Test Results (MRSA USF657)	Kirby-Bauer Disc Diffusion Test Results (MRSA USF659)	Kirby-Bauer Disc Diffusion Test Results (MRSA USF652)	Kirby-Bauer Disc Diffusion Test Results (MRSA USF656)	Kirby-Bauer Disc Diffusion Test Results (Staph aureus 525)	other results
CCCCSN1C(=O)C(OC)C1c1ccccc1Cl (racemic) [Butylthio]	20 mm	23 mm	23 mm	27 mm	26 mm	24 mm	26 mm	25 mm	25 mm										
COC1C(=O)N(SC)C1c1cccc([N+](=O)[O-])c1 (racemic) [FIG. 11C]										17	16	14	22	18	11	17	18	15	
COC1C(=O)N(SC)C1c1ccc(C#N)cc1 (racemic) [FIG. 11D]										12	0	12	16	10	12	14	13	14	
CCC(C)SN1C(=O)C(OC)C1c1ccccc1Cl (mixture of isomers) [sec-Butyl]	35 mm	35 mm	34 mm	34 mm	33 mm	33 mm	38 mm	36 mm	32 mm										
COC1C(=O)N(SC)C1C=Cc1ccccc1 (racemic) [FIG. 3B]																			zone of growth inhibition, average diameter ([1]; listed as 3B): 26 mm; zone of growth inhibition, average diameter ([2]; listed as 3B): 21 mm; zone of growth inhibition, average diameter (Micrococcus luteus; listed as 3B): 23 mm; zone of growth inhibition, average diameter (S. simulans (ATCC 11631); listed as 3B): 12 mm; zone of growth inhibition, average diameter (MRSA USF658; listed as 3B): 21 mm; zone of growth inhibition, average diameter (MRSA USF654; listed as 3B): 22 mm; zone of growth inhibition, average diameter (MRSA USF655; listed as 3B): 21 mm; zone of growth inhibition, average diameter (MRSA USF653; listed as 3B): 26 mm; zone of growth inhibition, average diameter (MRSA USF657; listed as 3B): 22 mm; zone of growth inhibition, average diameter (MRSA USF659; listed as 3B): 17 mm; zone of growth inhibition, average diameter (MRSA USF652; listed as 3B): 25 mm; zone of growth inhibition, average diameter (MRSA USF656; listed as 3B): 24 mm; zone of growth inhibition, average diameter ([3]; listed as 3B): 16 mm
COC1C(=O)N(SC)C1CCc1ccccc1 (racemic) [FIG. 3E]																			zone of growth inhibition, average diameter [1]: 12 mm; zone of growth inhibition, average diameter [2]: 16 mm; zone of growth inhibition, average diameter (Micrococcus luteus): 20 mm; zone of growth inhibition, average diameter (S. simulans (ATCC 11631)): 9 mm; zone of growth inhibition, average diameter (MRSA USF658): 15 mm; zone of growth inhibition, average diameter (MRSA USF654): 17 mm; zone of growth inhibition, average diameter (MRSA USF655): 15 mm; zone of growth inhibition, average diameter (MRSA USF653): 20 mm; zone of growth inhibition, average diameter (MRSA USF657): 14 mm; zone of growth inhibition, average diameter (MRSA USF659): 15 mm; zone of growth inhibition, average diameter (MRSA USF652): 18 mm; zone of growth inhibition, average diameter (MRSA USF656): 17 mm; zone of growth inhibition, average diameter [3]: 9 mm
